Results reported in patent US9750248B2, “Synergistic fungicidal compositions” (Dow AgroSciences LLC, priority 2012, dated 2017).

Columns and labels:
Assay type in all cases: in vivo
[1] = system: Septoria tritici (SEPTTR); test: Control of wheat leaf blotch, one-day protective (1DP) application, greenhouse; conditions: for A % DC: component A alone; for B % DC: component B alone
Method: (§1) For the mixture studies with compound of Formula I: Treatments consisted of fungicides, including a compound of Formula I, tebuconazole, propiconazole, metconazole, and cyproconazole, applied either individually or as two-way mixtures with a compound of Formula I. Technical grades of materials were dissolved in acetone to make stock solutions which were used to perform three-fold dilutions in acetone for each individual fungicide component or for the two-way mixtures. Desired fungicide rates were obtained after mixing dilutions with nine volumes of water containing 110 parts per million (ppm) Triton X-100. The fungicide solutions (10 milliliters (mL)) were applied onto six pots of plants using an automated booth sprayer, which utilized two 6218-1/4 JAUPM spray nozzles operating at 20 pounds per square inch (psi) set at opposing angles to cover both leaf surfaces. All sprayed plants were allowed to air dry prior to further handling. Control plants were sprayed in the same manner with a solvent blank.
(§2) For the one-day protectant experiments, the plants were inoculated with an aqueous spore suspension of the pathogen of interest (either PUCCRT or SEPTTR) and then placed in a dew room from 1-3 days to allow for infection to occur. The plants were then placed in the greenhouse for symptom development to occur. In the case of PUCCRT, symptoms typically appeared in 7-10 days while for SEPTTR symptoms typically appeared in 25-30 days.
(§3) When disease severity reached 50-100% on the control plants, infection levels were assessed on treated plants visually and scored on a scale of 0 to 100 percent. The percentage of disease control was then calculated using the ratio of disease on treated plants relative to control plants.
(§4) The Colby equation was used to determine the fungicidal effects expected from the mixtures. (See Colby, S. R. Calculation of the synergistic and antagonistic response of herbicide combinations, Weeds 1967, 15, 20-22.). More specifically, in Tables 1-5, Colby's equation was used to calculate the expected activity of mixtures containing two active ingredients, A and B: Expected=A+B−(A×B/100), wherein

[2] = system: Septoria tritici (SEPTTR); test: Control of wheat leaf blotch, three-day curative (3DC) application, greenhouse; conditions: for A % DC: component A alone; for B % DC: component B alone
Method: as §1
(§5) For the three-day curative experiments, plants were inoculated with an aqueous spore suspension of the pathogen of interest (either PUCCRT or SEPTTR) and then placed in a dew room from 1-3 days to allow for infection to occur. The plants were removed from the dew room, allowed to dry for approximately one hour (h), sprayed with the test materials formulated as described above, and then placed in the greenhouse for symptom development to occur as described previously.
as §3, §4

[3] = system: Puccinia recondita-tritici (PUCCRT); test: Control of wheat brown rust, three-day curative (3DC) application, greenhouse; conditions: for A % DC: component A alone; for B % DC: component B alone
Method: as §1, §5, §3, §4

[4] = system: Puccinia recondita-tritici (PUCCRT); test: Control of wheat brown rust, one-day protective (1DP) application, greenhouse; conditions: for A % DC: component A alone; for B % DC: component B alone
Method: as §1, §2, §3, §4

[5] = system: Puccinia recondita-tritici (PUCCRT); test: Control of wheat brown rust in a field research trial; conditions: for B % DC: component B alone
Method: as §4
The field trial was conducted at the Dow AgroSciences field station located at Mogi Mirim, Brazil. There were four replicate plots per treatment, with each plot 2×3.5 meters in length and width. The plots were sprayed with the treatments twice, once at growth stage BBCH 33 and again at growth stage BBCH 61-65. Treatments were applied with spray volumes of 150 liters/hectare (L/ha) with an XR flat fan nozzle. Disease development relied on natural inoculum (no artificial infestation). Ten plants per plot were used for each disease severity assessment, with all leaves per plant used for the assessment.

COc1ccnc(C(=O)N[C@H]2COC(=O)[C@H](Cc3ccccc3)[C@@H](OC(=O)C(C)C)[C@H](C)OC2=O)c1OCOC(=O)C(C)C [Cmpd I, (3S,6S,7R,8R)-8-benzyl-3-(3-((isobutyryloxy)methoxy)-4-methoxypicolinamido)-6-methyl-4,9-dioxo-1,5-dioxonan-7-yl isobutyrate] was tested, and the “A % DC” value ([1]; 0.1 ppm) was 7%, the “A % DC” value ([1]; 0.4 ppm) was 19% and the “A % DC” value ([1]; 1.6 ppm) was 53%. The “A % DC” value ([2]; 0.1 ppm) was 45.3%, the “A % DC” value ([2]; 1.6 ppm) was 55.2% and the “A % DC” value ([2]; 6.3 ppm) was 70.1%. The “A % DC” value ([3]; 0.1 ppm) was 0%, the “A % DC” value ([3]; 0.4 ppm) was 0% and the “A % DC” value ([3]; 1.6 ppm) was 0%. For the same compound, the “A % DC” value ([3]; 6.3 ppm) was 0%, the “A % DC” value ([4]; 0.4 ppm) was 0% and the “A % DC” value ([4]; 1.6 ppm) was 19.6%. The “A % DC” value ([4]; 6.3 ppm) was 85.5% and the “A % DC” value ([5]; component A alone, 150 g ai/ha) was 34.1%.

In the case of CCCC1COC(Cn2cncn2)(c2ccc(Cl)cc2Cl)O1 (centres unmarked) [Propiconazole, 1-[[2-(2,4-dichlorophenyl)-4-propyl-1,3-dioxolan-2-yl]methyl]-1H-1,2,4-triazole], the “B % DC” value ([1]; 0.1 ppm) is reported as 0%, the “B % DC” value ([1]; 1.6 ppm) is reported as 29% and the “B % DC” value ([1]; 6.3 ppm) is reported as 68%. The “B % DC” value ([3]; 1.6 ppm) was 2%, the “B % DC” value ([3]; 6.3 ppm) was 93% and the “B % DC” value ([4]; 0.1 ppm) was 0%. The “B % DC” value ([4]; 1.6 ppm) was 0% and the “B % DC” value ([4]; 6.3 ppm) was 0%.

In the case of CC1(C)CCC(Cc2ccc(Cl)cc2)C1(O)Cn1cncn1 (centres unmarked) [Metconazole, 5-[(4-chlorophenyl)methyl]-2,2-dimethyl-1-(1H-1,2,4-triazol-1-ylmethyl)cyclopentanol], the “B % DC” value ([1]; 0.1 ppm) is reported as 9%, the “B % DC” value ([3]; 0.4 ppm) is reported as 4% and the “B % DC” value ([4]; 0.4 ppm) is reported as 0%. The “B % DC” value ([4]; 1.6 ppm) was 8% and the “B % DC” value ([4]; 6.3 ppm) was 87%.

In the case of CC(C1CC1)C(O)(Cn1cncn1)c1ccc(Cl)cc1 (stereo not drawn) [Cyproconazole, α-(4-chlorophenyl)-α-(1-cyclopropylethyl)-1H-1,2,4-triazole-1-ethanol], the “B % DC” value ([1]; 0.4 ppm) is reported as 9%, the “B % DC” value ([1]; 1.6 ppm) is reported as 19% and the “B % DC” value ([2]; 0.1 ppm) is reported as 44.0%. For the same compound, the “B % DC” value ([3]; 0.4 ppm) was 82%, the “B % DC” value ([4]; 0.1 ppm) was 0% and the “B % DC” value ([4]; 0.4 ppm) was 0%. The “B % DC” value ([4]; 1.6 ppm) was 27%, the “B % DC” value ([4]; 6.3 ppm) was 57% and the “B % DC” value ([5]; 40 g ai/ha) was 38%.

With CC(C)(C)C(O)(CCc1ccc(Cl)cc1)Cn1cncn1 (stereo not drawn) [Tebuconazole, α-[2-(4-chlorophenyl)ethyl]-α-(1,1-dimethylethyl)-1H-1,2,4-triazole-1-ethanol] the “B % DC” value ([1]; 0.4 ppm) was 0%, the “B % DC” value ([1]; 1.6 ppm) was 34% and the “B % DC” value ([2]; 0.1 ppm) was 23.0%. For the same compound, the “B % DC” value ([3]; 0.4 ppm) was 2%, the “B % DC” value ([3]; 1.6 ppm) was 87% and the “B % DC” value ([4]; 0.1 ppm) was 0%. The “B % DC” value ([4]; 0.4 ppm) was 0%, the “B % DC” value ([4]; 1.6 ppm) was 18% and the “B % DC” value ([4]; 6.3 ppm) was 82%. For the same compound, the “B % DC” value ([5]; 140 g ai/ha) was 74.3%.

In the case of COC(=O)N(OC)c1ccccc1COc1ccn(-c2ccc(Cl)cc2)n1 [Pyraclostrobin, pyraclostrobin], the “B % DC” value ([5]; 60 g ai/ha) is reported as 85.8%.
